The source of these data is PubChem BioAssay (NCI).

Some test systems named below: ACHN renal; EKVX NSCLC; HL-60(TB) leukemia; LOX IMVI melanoma; M14 melanoma; NCI-H522 lung; OVCAR-3 ovarian; OVCAR-5 ovarian; SK-MEL-28 melanoma; UACC-62 melanoma.
Experiment in all cases: NCI tumour cell line growth inhibition, 48 h

Several values for one entry are separate records, joined by “and”; a condition that tells them apart may be missing. Equal entries are not always repeated.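 96-well plates; 48 h exposure; 5 concentrations. Endpoints by linear interpolation between flanking doses. Not reached: highest tested concentration assigned. GI50 is the concentration that inhibits growth by half. TGI is the concentration that stops growth completely.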 Bounds are passed on as bounds.

With `O=C(O)C(O)C(O)C1[O][Sb][O]C1CO` (stereo not given), the GI50 with ACHN renal is more than 100 µM; with EKVX NSCLC, more than 100 µM; in the assay on HL-60(TB) leukemia it was more than 53.1 µM; in the assay with LOX IMVI melanoma, more than 100 µM; with M14 melanoma it was more than 100 µM; with NCI-H522 lung, > 100 µM and 14 µM. Further, the GI50 in the assay with OVCAR-3 ovarian was more than 100 µM; with OVCAR-5 ovarian, more than 100 µM; in the assay with SK-MEL-28 melanoma, > 100 µM and 13.7 µM; with UACC-62 melanoma, more than 100 µM. In addition, the TGI was more than 100 µM with ACHN renal; more than 100 µM in the assay on EKVX NSCLC; more than 100 µM in the assay on HL-60(TB) leukemia; more than 100 µM in the assay with LOX IMVI melanoma; more than 100 µM in the assay on M14 melanoma; > 100 µM and 38.9 µM in the assay on NCI-H522 lung. Besides, the TGI was more than 100 µM with OVCAR-3 ovarian; more than 100 µM with OVCAR-5 ovarian; > 100 µM and 43.4 µM with SK-MEL-28 melanoma; more than 100 µM in the assay with UACC-62 melanoma.

For `C=C1C(=O)C23C(CC(OC(C)=O)C1[C@@H]2OC(C)=O)C1(C)C(OC(C)=O)CCC(C)(C)C1C[C@@H]3OC(C)=O` (stereo not given in full), the TGI in the assay with ACHN renal amounted to 2.92 µM; in the assay with EKVX NSCLC, 5.38 µM; in the assay with HL-60(TB) leukemia, 2.51 µM; in the assay with LOX IMVI melanoma it was 2.63 µM; in the assay on M14 melanoma, 2.92 µM; in the assay with NCI-H522 lung, 1.66 µM. Moreover, the TGI is 3.03 µM with OVCAR-3 ovarian, 3.27 µM in the assay with OVCAR-5 ovarian, 3.3 µM in the assay with SK-MEL-28 melanoma and 3.72 µM in the assay on UACC-62 melanoma.

As to `Nc1nc(Cl)cc(NCCCCCCCCCCNc2cc(Cl)nc(N)n2)n1`, the TGI was 0.0447 µM in the assay on ACHN renal; more than 100 µM in the assay with EKVX NSCLC; 34.6 µM with HL-60(TB) leukemia; 24.2 µM in the assay on LOX IMVI melanoma; more than 100 µM in the assay on M14 melanoma; 11.5 µM in the assay with NCI-H522 lung. Moreover, the TGI with OVCAR-3 ovarian, in the assay on OVCAR-5 ovarian and in the assay on UACC-62 melanoma was more than 100 µM each time.

With `O=C(O)C1C2CC3CC2CC31` (stereo not given), the TGI in the assay on ACHN renal, with EKVX NSCLC, with HL-60(TB) leukemia, in the assay with LOX IMVI melanoma, with M14 melanoma and in the assay on NCI-H522 lung was more than 100 µM in each case. In addition, the TGI in the assay with OVCAR-3 ovarian, with OVCAR-5 ovarian, in the assay with SK-MEL-28 melanoma and with UACC-62 melanoma was more than 100 µM each time.

As for `c1ccc(CN(Cc2ccccn2)Cn2cccn2)nc1`, the TGI is more than 100 µM in the assay with ACHN renal; more than 100 µM in the assay on EKVX NSCLC; 55.8 µM in the assay on HL-60(TB) leukemia; more than 100 µM in the assay with LOX IMVI melanoma; more than 100 µM with M14 melanoma; more than 100 µM with NCI-H522 lung. In addition, the TGI was more than 100 µM with OVCAR-3 ovarian, more than 100 µM in the assay on SK-MEL-28 melanoma and 44.4 µM in the assay on UACC-62 melanoma.

For `COCCOC(=O)CCn1cc(F)c(=O)[nH]c1=O`, the GI50 in the assay with ACHN renal was 8.67 mg/L; in the assay with EKVX NSCLC it was 57.8 mg/L; in the assay with HL-60(TB) leukemia, 13.6 mg/L; in the assay with LOX IMVI melanoma, 10.4 mg/L; in the assay on M14 melanoma, 8.38 mg/L; in the assay on NCI-H522 lung, 131 mg/L. The GI50 with OVCAR-3 ovarian was 5.79 mg/L; with OVCAR-5 ovarian, 122 mg/L; in the assay on SK-MEL-28 melanoma it was 31.7 mg/L; in the assay on UACC-62 melanoma it was 11 mg/L. Also, the TGI with ACHN renal, in the assay with EKVX NSCLC, with HL-60(TB) leukemia, in the assay with LOX IMVI melanoma, in the assay with M14 melanoma and in the assay with NCI-H522 lung was more than 150 mg/L each time. The TGI in the assay on OVCAR-3 ovarian, with OVCAR-5 ovarian, with SK-MEL-28 melanoma and with UACC-62 melanoma was more than 150 mg/L in each case.

With `C/C(=N\N=C(N)N)c1sc(-c2nc(C)c(/C(C)=N/N=C(N)N)s2)nc1C`, the TGI with ACHN renal was more than 100 µM; with EKVX NSCLC, more than 100 µM; in the assay on HL-60(TB) leukemia it was 88.2 µM; in the assay on LOX IMVI melanoma it was more than 58.3 µM; with M14 melanoma, more than 100 µM; in the assay on NCI-H522 lung, more than 77 µM. The TGI in the assay on OVCAR-3 ovarian, with OVCAR-5 ovarian, with SK-MEL-28 melanoma and in the assay on UACC-62 melanoma was more than 100 µM in each case.

Take `Cc1cc(Br)cc(C)c1NC(=O)C(=O)C(C(=O)c1ccc(Cl)c(Cl)c1)C1OC(=O)c2ccccc21` (stereo not given): the TGI with ACHN renal, in the assay on EKVX NSCLC, with HL-60(TB) leukemia, with LOX IMVI melanoma, in the assay on M14 melanoma and in the assay on NCI-H522 lung was more than 100 µM throughout. Also, the TGI in the assay on OVCAR-3 ovarian, in the assay with OVCAR-5 ovarian and in the assay on UACC-62 melanoma was more than 100 µM each time.

As for `CN(C)c1ccc(/C=N/Nc2ccc(-c3nc4ccccc4[nH]3)cc2)cc1`, the GI50 was 8.76 µM with ACHN renal; 17.6 µM in the assay on EKVX NSCLC; 14.6 µM with HL-60(TB) leukemia; 4.86 µM in the assay on LOX IMVI melanoma; 13.2 µM in the assay with M14 melanoma; 10.3 µM in the assay with NCI-H522 lung. For the same compound, the GI50 with OVCAR-3 ovarian was 31.7 µM; in the assay with OVCAR-5 ovarian it was 28.9 µM; in the assay on UACC-62 melanoma, 8.32 µM. The TGI with ACHN renal is 41.7 µM; in the assay on EKVX NSCLC, more than 50 µM; in the assay on HL-60(TB) leukemia it was more than 50 µM; in the assay on LOX IMVI melanoma, 11.6 µM; with M14 melanoma, 46.8 µM; with NCI-H522 lung, 31.2 µM. The figures for the TGI with OVCAR-3 ovarian, with OVCAR-5 ovarian and in the assay on UACC-62 melanoma were more than 50 µM, more than 50 µM and 24.3 µM, respectively.

In the case of `COc1cc(SC)ccc1C(=O)N1CCCC(C)C1` (stereo not given), the GI50 with ACHN renal was more than 100 µM; in the assay on HL-60(TB) leukemia it was 75.2 µM; in the assay on LOX IMVI melanoma it was more than 100 µM; in the assay with M14 melanoma, more than 100 µM; in the assay with NCI-H522 lung it was more than 100 µM; in the assay with OVCAR-3 ovarian, more than 100 µM. The GI50 in the assay with OVCAR-5 ovarian, in the assay with SK-MEL-28 melanoma and with UACC-62 melanoma was more than 100 µM each time. For the same compound, the TGI in the assay with ACHN renal, in the assay on HL-60(TB) leukemia, with LOX IMVI melanoma, in the assay with M14 melanoma, in the assay on NCI-H522 lung and in the assay with OVCAR-3 ovarian was more than 100 µM each time. The TGI in the assay on OVCAR-5 ovarian, in the assay with SK-MEL-28 melanoma and in the assay with UACC-62 melanoma was more than 100 µM throughout.

Take `Cc1[nH]nc(C(=O)N/N=C/c2cccs2)c1N=NN(C)C`: the TGI with ACHN renal was 13 µM; with EKVX NSCLC it was more than 100 µM; in the assay with HL-60(TB) leukemia, 89.4 µM; in the assay with LOX IMVI melanoma, 34.7 µM; in the assay with M14 melanoma, more than 100 µM; in the assay with NCI-H522 lung, 29.5 µM. Further, the TGI in the assay with OVCAR-3 ovarian was more than 100 µM; in the assay on OVCAR-5 ovarian, more than 100 µM; in the assay with UACC-62 melanoma it was 51.7 µM.

With `O=[N+]([O-])C(=C(c1ccccc1)c1ccccc1)[N+](=O)[O-]`, the TGI in the assay with ACHN renal was 25.5 µM; with HL-60(TB) leukemia, 8.74 µM; in the assay on LOX IMVI melanoma, 9.68 µM; in the assay on M14 melanoma it was 25.4 µM; in the assay with NCI-H522 lung, 31.3 µM; with OVCAR-3 ovarian it was 35.5 µM. Further, the TGI turned out to be 34.5 µM in the assay on OVCAR-5 ovarian, 20.1 µM in the assay on SK-MEL-28 melanoma and 9.56 µM in the assay with UACC-62 melanoma.

Turning to `O=C(O)c1oc2ccc([N+](=O)[O-])c3c2c1CCC3`, the TGI with ACHN renal, in the assay on EKVX NSCLC, in the assay on HL-60(TB) leukemia, in the assay on LOX IMVI melanoma, in the assay on M14 melanoma and in the assay with NCI-H522 lung was more than 100 µM in each case. Moreover, the TGI with OVCAR-3 ovarian, in the assay on OVCAR-5 ovarian and in the assay with SK-MEL-28 melanoma was more than 100 µM in each case.

As to `Cc1nc(Nc2ccc([N+](=O)[O-])cc2)sc1C(=O)/C=C/c1ccc(N(C)C)cc1`, the TGI in the assay with ACHN renal, with EKVX NSCLC, in the assay on HL-60(TB) leukemia, in the assay with LOX IMVI melanoma, with NCI-H522 lung and in the assay with OVCAR-3 ovarian was more than 100 µM in each case. Further, the TGI in the assay on OVCAR-5 ovarian, in the assay on SK-MEL-28 melanoma and in the assay on UACC-62 melanoma was more than 100 µM each time.

As for `CC1=NN(C(=O)Cc2ccccc2)C(=O)/C1=C\c1cccc(O)c1`, the TGI with ACHN renal, in the assay on EKVX NSCLC, in the assay with HL-60(TB) leukemia, with LOX IMVI melanoma, in the assay on M14 melanoma and with NCI-H522 lung was more than 100 µM in each case. Moreover, the TGI in the assay with OVCAR-3 ovarian, in the assay on OVCAR-5 ovarian and in the assay on SK-MEL-28 melanoma was more than 100 µM throughout.

With `C=C1C(=O)O[C@H]2[C@H](OC(C)=O)[C@@H](C)CCC/C(C)=C/CC[C@]3(CO3)[C@H](O)C[C@@H]12`, the GI50 is 2.3 µM in the assay with ACHN renal; 4.52 µM in the assay on EKVX NSCLC; 2.31 µM in the assay with HL-60(TB) leukemia; 2.07 µM in the assay on LOX IMVI melanoma; 6.22 µM with NCI-H522 lung; 2.36 µM with OVCAR-3 ovarian. Also, the GI50 was 13.2 µM in the assay on OVCAR-5 ovarian, 2.21 µM in the assay with SK-MEL-28 melanoma and 12.7 µM in the assay on UACC-62 melanoma. Moreover, the TGI worked out at 4.17 µM with ACHN renal; 17.3 µM in the assay with EKVX NSCLC; 5.63 µM in the assay on HL-60(TB) leukemia; 4.75 µM with LOX IMVI melanoma; 20.2 µM with NCI-H522 lung; 5.69 µM with OVCAR-3 ovarian. The TGI with OVCAR-5 ovarian is 26.5 µM; in the assay with SK-MEL-28 melanoma, 4.8 µM; in the assay with UACC-62 melanoma it was 25.3 µM.

As to `C[P+](C)(CC(F)(F)F)c1ccccc1`, the TGI in the assay with ACHN renal, in the assay with EKVX NSCLC, in the assay on HL-60(TB) leukemia, with LOX IMVI melanoma, with M14 melanoma and with NCI-H522 lung was more than 100 µM throughout. The TGI in the assay with OVCAR-3 ovarian, in the assay with OVCAR-5 ovarian and in the assay on UACC-62 melanoma was more than 100 µM each time.
